One series has as its system HBV. Kind of series: HBV cell-based assay. More on the design: species or system hepatitis B virus. An excerpt:
As described herein, compounds of the instant invention show surprising and exceptionally strong inhibition of viral replication, particularly HBV. […] In certain embodiments, the invention provides compounds capable of inhibiting viral replication, preferably HBV, at clinically relevant concentrations.
HBV cell-based assays for the evaluation of anti-viral activity against HBV are known in the art (see, e.g., Korba et al., Antiviral Res. 15:217, 1991; and Korba et al., Antiviral Res. 19:55, 1992). Moreover, the compounds of the invention can be useful research tools for in vitro and cell-based assays to study the biological mechanisms of viral infection, growth, and replication, preferably for HBV. By way of background and not wishing to be bound by theory, HBV replication is unusual in that this virus has a partially […] circular DNA (all of the minus DNA strand and part of the plus strand), but replicates by way of an RNA intermediate (typically, single-stranded viral DNA is converted to double stranded DNA, which serves as the template for viral replication). That is, when the virus enters the cell, the minus-strand DNA is transported to the cell nucleus, plus strand RNA is then transcribed from the DNA, the RNA is transported to the cytoplasm, and reverse transcriptase then synthesizes viral DNA from the RNA for packaging. […]

The nature of series [1]: overall biopharmaceutical properties / oral availability.

With `Nc1ncnc2c1c(F)cn2[C@H]1CC(O)[C@@H](CO)O1` (stereo partly drawn) [structure (II), 4-amino-5-fluoro-7-(2′-deoxy-β-D-erythro-pentofuranosyl) pyrrolo[2,3-d]pyrimidine], the “anti-viral activity against HBV” value in the series with HBV is given as “exhibit anti-viral activity against HBV”. In series [1], the oral availability entry is “orally available” and the overall biopharmaceutical properties entry is “good overall biopharmaceutical properties”.
